Source: ChEMBL document CHEMBL5338795, “Novel Triazoles with Potent and Broad-Spectrum Antifungal Activity In Vitro and In Vivo” (J Med Chem, 2023)
Values after ≈ are worked out from the molar mass of the structure shown. Active and inactive are the calls of the source. The calls are words filed in the database; no cut-off is given here.

Experiments:
Cytochrome P450 3A4 = Cytochrome P450 3A4 (Homo sapiens, UniProt P08684); assay: Inhibition of CYP3A4 in human liver microsomes using testosterone as substrate preincubated for 5 mins followed by NADPH addition and measured after 5 mins by LC-MS/MS analysis; assay type: ADME, Microsome
Candida albicans [1] = assay: In-vivo antifungal activity against Candida albicans […] infected in skin infected ICR mouse model assessed as wound healing at 0.5 mg/kg, ip pretreated for 24 hrs followed by infection and measured for 5 days; assay type: functional, organism-based; conditions: time 144.0 hrs
Candida albicans [2] = assay: Antifungal activity against fluconazole-resistant Candida albicans 102 assessed as inhibition of fungal growth measured for 24 hrs by CLSI based microdilution analysis; assay type: functional
Nakaseomyces glabratus = assay: Antifungal activity against Candida glabrata ATCC 15126 assessed as reduction in fungal growth incubated for 24 hrs by CLSI based microdilution analysis; assay type: functional
Candida albicans [3] = assay: In-vivo antifungal activity against Candida albicans […] infected in skin infected ICR mouse model assessed as wound healing at 1 mg/kg, ip pretreated for 24 hrs followed by infection and measured for 5 days; assay type: functional, organism-based; conditions: time 144.0 hrs
Candida albicans [4] = assay: In-vivo antifungal activity against multidrug-resistant Candida albicans 24D infected in ICR mouse model assessed as median survival time at 1 mg/kg, ip administered once daily pretreated for 24 hrs followed by infection and measured every 2 hrs for 5 days; assay type: functional; conditions: time 144 hrs
[5] = biological target: T1, Lanosterol 14-alpha demethylase (Candida albicans (strain SC5314 / ATCC MYA-2876) (Yeast), UniProt P10613); assay: Inhibition of CYP51 in Candida albicans […] assessed as decrease in ergosterol biosynthesis level at 0.5 times MIC80 incubated for 16 hrs by GC-MS analysis (Rvb=67.2%)
[6] = system: Meyerozyma guilliermondii; assay: Antifungal activity against Meyerozyma guilliermondii ATCC 6260 assessed as reduction in fungal growth incubated for 24 hrs by CLSI based microdilution analysis; assay type: functional
Candida albicans [7] = assay: Induction of resistance development in Candida albicans SC5314 assessed as increase in MIC treated over 8 serial passages by microdilution assay; assay type: functional
Candida albicans [8] = assay: In-vivo antifungal activity against Candida albicans […] infected in skin infected ICR mouse model assessed as reduction in fungal burden in skin at 1 mg/kg, ip pretreated for 24 hrs followed by infection and measured for 5 days by Periodic acid-Schiff staining based analysis; assay type: functional, organism-based; conditions: time 144.0 hrs
CYP3A4 = assay: Selectivity index, ratio of MIC80 for antifungal activity against Candida albicans to IC50 for inhibition of CYP3A4 in human liver microsomes; assay type: toxicity; conditions: read-out: Selectivity Index
[9] = biological target: T1, Lanosterol 14-alpha demethylase; assay: Inhibition of CYP51 in Candida albicans SC3514 assessed as decrease in eburicol biosynthesis level at 0.5 times MIC80 incubated for 16 hrs by GC-MS analysis (Rvb=21.38%)
Candida albicans [10] = assay: In-vivo antifungal activity against Candida albicans […] infected in ICR mouse model assessed as median survival time at 1 mg/kg, ip administered once daily pretreated for 24 hrs followed by infection and measured every 2 hrs for 5 days; assay type: functional; conditions: time 144 hrs
Aspergillus fumigatus [11] = assay: Antifungal activity against Aspergillus fumigatus CGMCC3 7795 assessed as reduction in fungal growth incubated for 48 hrs by CLSI based microdilution analysis; assay type: functional
Candida albicans [12] = assay: Antifungal activity against fluconazole-resistant Candida albicans 13 assessed as inhibition of fungal growth measured for 24 hrs by CLSI based microdilution analysis; assay type: functional
Candida parapsilosis = assay: Antifungal activity against Candida parapsilosis ATCC 22019 assessed as reduction in fungal growth incubated for 24 hrs by CLSI based microdilution analysis; assay type: functional; conditions: Lodderomyces parapsilosis
Cryptococcus neoformans = assay: Antifungal activity against Cryptococcus neoformans CGMCC3 1563 assessed as reduction in fungal growth incubated for 72 hrs by CLSI based microdilution analysis; assay type: functional
[13] = Clearance in Sprague-Dawley rat at 2 mg/kg, iv measured at 0.08 to 24 hrs by LC-MS/MS analysis; assay type: ADME, organism-based; conditions: in vivo, time 0.08-24 hrs
Candida albicans [14] = assay: Antifungal activity against fluconazole-resistant Candida albicans 112869 assessed as inhibition of fungal growth measured for 24 hrs by CLSI based microdilution analysis; assay type: functional
Candida albicans [15] = assay: Antifungal activity against fluconazole-resistant Candida albicans 901 assessed as inhibition of fungal growth measured for 24 hrs by CLSI based microdilution analysis; assay type: functional
[16] = AUC (0 to infinity) in Sprague-Dawley rat at 2 mg/kg, iv measured at 0.08 to 24 hrs by LC-MS/MS analysis; assay type: ADME, organism-based; parameters: time 0.08-24 hrs, dose 2 mg/kg, route iv; conditions: in vivo
[17] = biological target: T1, Lanosterol 14-alpha demethylase; assay: Inhibition of CYP51 in Candida albicans […] assessed as decrease in lanosterol biosynthesis level at 0.5 times MIC80 incubated for 16 hrs by GC-MS analysis relative to control
Aspergillus fumigatus [18] = assay: In-vivo antifungal activity against Aspergillus fumigatus CGMCC3 7795 infected in ip dosed ICR mouse model assessed as median survival time administered once daily pretreated for 24 hrs followed by infection and measured every 2 hrs for 5 days; assay type: functional, organism-based; conditions: dose 1.0 mg/kg, time 144.0 hrs
[19] = Hemolytic activity in mouse RBC assessed as hemolysis at 100 microg/ml incubated for 60 mins relative to control; assay type: toxicity, cell-based, Erythrocyte; conditions: red blood cells (erythrocytes), at 100 µg/mL, read-out: Activity
Candida albicans [20] = assay: Antifungal activity against fluconazole-resistant Candida albicans 15 assessed as inhibition of fungal growth measured for 24 hrs by CLSI based microdilution analysis; assay type: functional
Candida albicans [21] = assay: Antifungal activity against fluconazole-resistant Candida albicans 24D assessed as inhibition of fungal growth measured for 24 hrs by CLSI based microdilution analysis; assay type: functional
Candida tropicalis = assay: Antifungal activity against Candida tropicalis ATCC 750 assessed as reduction in fungal growth incubated for 24 hrs by CLSI based microdilution analysis; assay type: functional
Candida albicans [22] = assay: In-vivo antifungal activity against Candida albicans […] infected in skin infected ICR mouse model assessed as reduction in fungal burden in skin at 0.5 mg/kg, ip pretreated for 24 hrs followed by infection and measured for 5 days by Periodic acid-Schiff staining based analysis; assay type: functional, organism-based; conditions: time 144.0 hrs
[23] = biological target: T1, Lanosterol 14-alpha demethylase; assay: Inhibition of CYP51 in Candida albicans […] assessed as decrease in unknown sterol biosynthesis level at 1 times MIC80 incubated for 16 hrs by GC-MS analysis relative to control
[24] = biological target: T1, Lanosterol 14-alpha demethylase; assay: Inhibition of CYP51 in Candida albicans […] assessed as decrease in unknown sterol biosynthesis level at 0.5 times MIC80 incubated for 16 hrs by GC-MS analysis relative to control
Candida albicans [25] = assay: Antifungal activity against Candida albicans SC5314 assessed as reduction in fungal growth incubated for 24 hrs by CLSI based microdilution analysis; assay type: functional
Candida albicans [26] = assay: Induction of resistance development in Candida albicans SC5314 assessed as fold increase in MIC treated over 20 serial passages by microdilution assay; assay type: functional
[27] = Half life in Sprague-Dawley rat at 2 mg/kg, iv measured at 0.08 to 24 hrs by LC-MS/MS analysis; assay type: ADME, organism-based; conditions: in vivo, time 0.08-24 hrs
[28] = biological target: T1, Lanosterol 14-alpha demethylase; assay: Inhibition of CYP51 in Candida albicans […] assessed as decrease in ergosterol biosynthesis level at 1 times MIC80 incubated for 16 hrs by GC-MS analysis (Rvb=67.2%)

T1 sequence (P10613 whole entry): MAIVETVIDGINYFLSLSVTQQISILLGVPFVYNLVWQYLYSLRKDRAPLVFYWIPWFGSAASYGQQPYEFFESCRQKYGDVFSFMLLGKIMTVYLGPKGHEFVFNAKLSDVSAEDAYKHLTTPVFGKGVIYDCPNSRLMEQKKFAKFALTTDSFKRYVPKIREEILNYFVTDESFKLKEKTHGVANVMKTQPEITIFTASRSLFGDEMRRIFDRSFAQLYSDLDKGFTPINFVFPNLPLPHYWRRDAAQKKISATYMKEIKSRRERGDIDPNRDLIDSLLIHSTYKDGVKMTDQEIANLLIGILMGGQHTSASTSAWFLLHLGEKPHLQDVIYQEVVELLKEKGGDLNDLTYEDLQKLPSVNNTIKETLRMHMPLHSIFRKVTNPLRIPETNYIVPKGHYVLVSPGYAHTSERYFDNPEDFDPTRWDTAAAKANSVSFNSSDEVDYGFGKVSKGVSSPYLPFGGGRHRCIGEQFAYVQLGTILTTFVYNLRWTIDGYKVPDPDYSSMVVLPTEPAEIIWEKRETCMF
Sequence of Cytochrome P450 3A4 (P08684 whole entry): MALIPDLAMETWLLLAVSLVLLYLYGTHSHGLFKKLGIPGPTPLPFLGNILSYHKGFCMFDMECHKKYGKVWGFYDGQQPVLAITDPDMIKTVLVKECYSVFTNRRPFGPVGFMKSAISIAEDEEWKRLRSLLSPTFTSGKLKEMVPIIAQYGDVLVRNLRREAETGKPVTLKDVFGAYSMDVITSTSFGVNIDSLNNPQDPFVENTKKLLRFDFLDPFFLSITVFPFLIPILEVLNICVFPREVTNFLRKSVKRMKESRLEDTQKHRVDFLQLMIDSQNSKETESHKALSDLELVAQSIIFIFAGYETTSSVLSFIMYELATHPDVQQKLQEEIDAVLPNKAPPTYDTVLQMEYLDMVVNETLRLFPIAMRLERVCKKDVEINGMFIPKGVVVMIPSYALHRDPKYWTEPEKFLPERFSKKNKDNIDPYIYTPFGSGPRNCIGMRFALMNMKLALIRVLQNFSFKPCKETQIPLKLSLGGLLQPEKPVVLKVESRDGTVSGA

Row | SMILES | IC50 (Cytochrome P450 3A4) [nM] | MIC80 (Candida albicans [2]) [µg/mL] | MIC80 (Nakaseomyces glabratus) [µg/mL] | Activity (Candida albicans [3]) | Time (Candida albicans [4]) [days] | MIC80 [6] [µg/mL] | Activity (Candida albicans [8]) | Time (Candida albicans [10]) [days] | MIC80 (Aspergillus fumigatus [11]) [µg/mL] | MIC80 (Candida albicans [12]) [µg/mL] | MIC80 (Candida parapsilosis) [µg/mL] | MIC80 (Cryptococcus neoformans) [µg/mL] | MIC80 (Candida albicans [14]) [µg/mL] | MIC80 (Candida albicans [15]) [µg/mL] | hemolysis at 1 h, 100 microg/ml [19] [%] | MIC80 (Candida albicans [20]) [µg/mL] | MIC80 (Candida albicans [21]) [µg/mL] | MIC80 (Candida tropicalis) [µg/mL] | MIC80 (Candida albicans [25]) [µg/mL] | also measured
1 | O[C@@](CN1CCN(CCn2ccc3cc(Br)ccc32)CC1)(Cn1cncn1)c1ccc(F)cc1F | 400 | 0.015 (≈ 0.0275 µM) | 0.078 (≈ 0.143 µM) | Active | 12 | 0.015 (≈ 0.0275 µM) | Active | 6 | 0.625 (≈ 1.15 µM) | 0.015 (≈ 0.0275 µM) | 0.008 (≈ 0.0147 µM) | 0.015 (≈ 0.0275 µM) | 0.031 (≈ 0.0568 µM) | 1.25 (≈ 2.29 µM) | 1.9 | 0.312 (≈ 0.572 µM) | 0.031 (≈ 0.0568 µM) | 0.078 (≈ 0.143 µM) | 0.004 (≈ 0.00733 µM) | Activity (Candida albicans [1]): Active; inhibition (INH) [5]: 33.33%; Activity (Candida albicans [7]): Active; selectivity ratio (CYP3A4): 100; inhibition (INH) [9]: 21.3%; clearance [13]: 26.7 mL/min/kg; AUC(0-inf) [16]: 1260 ng·h/mL; inhibition (INH) [17]: 13.8%; Activity (Aspergillus fumigatus [18]): Dose-Dependent Effect; Activity (Candida albicans [22]): Active; inhibition (INH) [23]: 27.03%; inhibition (INH) [24]: 14.9%; fold change (FC) (Candida albicans [26]): 8; half-life [27]: 1.04 h; inhibition (INH) [28]: 5.41%
2 | N#C/C(=C1/SC[C@@H](c2ccc(Cl)cc2Cl)S1)n1ccnc1 | – | – | – | inactive | – | – | Active | – | – | – | – | – | – | – | – | – | – | – | – | –
3 | C[C@@H](c1ncncc1F)[C@](O)(Cn1cncn1)c1ccc(F)cc1F [VORICONAZOLE] | – | > 100 | 0.312 (≈ 0.893 µM) | – | 9 | 0.062 (≈ 0.177 µM) | – | 7 | 0.312 (≈ 0.893 µM) | 25 (≈ 71.6 µM) | 0.062 (≈ 0.177 µM) | 0.031 (≈ 0.0887 µM) | > 100 | > 100 | – | 0.625 (≈ 1.79 µM) | > 100 | 0.312 (≈ 0.893 µM) | 0.062 (≈ 0.177 µM) | –
4 | OC(CN1CCN(CCCn2ccc3cc(Br)ccc32)CC1)(Cn1cncn1)c1ccc(F)cc1F (stereo unspecified) | 130 | 0.062 (≈ 0.111 µM) | 0.312 (≈ 0.558 µM) | – | – | 0.015 (≈ 0.0268 µM) | – | – | 0.625 (≈ 1.12 µM) | 0.031 (≈ 0.0554 µM) | 0.062 (≈ 0.111 µM) | 0.031 (≈ 0.0554 µM) | 0.125 (≈ 0.223 µM) | 1.25 (≈ 2.23 µM) | 5.9 | 1.25 (≈ 2.23 µM) | 0.062 (≈ 0.111 µM) | 0.312 (≈ 0.558 µM) | 0.031 (≈ 0.0554 µM) | –
